Consider five compounds from ChEMBL document CHEMBL5154750 (Bioorg Med Chem, 2022).

In test [1] the test system is HCT-116. The test can be described thus: Growth inhibition of human HCT-116 cells at 1 uM relative to control. The test is classed as functional. Details: scale not given: the % may be the effect or the level left.
Test [2] deals with HL-60. The experiment in a line: Cytotoxicity against human HL-60 cells assessed as cell viability at 10 uM relative to control. It counts as functional. Conditions: read-out: Activity.
Test [3] has as its system HL-60. The experiment in a line: Cytotoxicity against human HL-60 cells assessed as cell viability at 1 uM relative to control. The test is classed as functional. Conditions: read-out: Activity.
For test [4], the system named is HL-60. The test can be described thus: Cytotoxicity against human HL-60 cells assessed as reduction in cell viability. It counts as functional, cell-based.
Test [5] has as its system HCT-116. The experiment in a line: Cytotoxicity against human HCT-116 cells assessed as cell viability at 1 uM relative to control. It counts as functional. The conditions noted are these: read-out: Activity.
For test [6], the system named is HCT-116. The experiment in a line: Cytotoxicity against human HCT-116 cells assessed as cell viability at 10 uM relative to control. The conditions noted are these: read-out: Activity. It counts as functional.
Test [7] relates to HCT-116. The test can be described thus: Cytotoxicity against human HCT-116 cells assessed as reduction in cell viability. It counts as functional, cell-based.
[8] abbreviates: Homo sapiens, HL-60, read-out: IC50.

Broadly, the IC50 is the concentration that inhibits the measured activity by half. In turn, `O=C1C=C2C(I)=C[C@@H]3C[C@]2(CN3Cc2ccccc2)O1` showed an Activity in the test on HCT-116 [1] of 80.9%. The viability at 10 µM in the test with HL-60 [2] came out at 0%; in the test with HCT-116 [6] it was 1%. The values for the viability at 1 µM with HL-60 [3] and in the test on HCT-116 [5] were 4% and 5%, respectively. In addition, the IC50 in the test on HL-60 [4] (setting [8]) is 350 nM; in the test on HCT-116 [7], 60 nM.
Turning to `O=C1C=C2C=C[C@@H]3C[C@]2(CN3Cc2ccccc2)O1`, the viability at 10 µM is 3% with HL-60 [2] and 86% in the test on HCT-116 [6]. In addition, the viability at 1 µM with HL-60 [3] stood at 11%; in the test on HCT-116 [5] it was 100%. Also, in the test with HL-60 [4] (setting [8]), the IC50 was 100 nM.
As for `CC(C)CN1C[C@]23C[C@H]1C=CC2=CC(=O)O3`, the viability at 10 µM in the test on HL-60 [2] was determined as 1%; in the test with HCT-116 [6], 78%. The viability at 1 µM with HL-60 [3] stood at 15%; in the test on HCT-116 [5] it was 83%.
Consider `COc1cccc2c1C(=O)c1c(O)c3c(c(O)c1C2=O)C[C@@](O)(C(=O)CO)C[C@@H]3O[C@H]1C[C@H](N)[C@H](O)[C@H](C)O1` [DOXORUBICIN], for which the IC50 is 90 nM with HL-60 [4] (hl-60) and 10 nM in the test with HCT-116 [7].
Turning to `O=C1C=C2C=C[C@@H]3C[C@@]2(O1)[C@H]1CCCCN31` [SECURININE], the results for the viability at 10 µM in the test with HL-60 [2] and in the test with HCT-116 [6] were 0.4% and 13%, respectively. Moreover, the results for the viability at 1 µM in the test with HL-60 [3] and in the test with HCT-116 [5] were 8% and 98%, respectively. The half-maximal inhibitory concentration (IC50) in the test with HL-60 [4] (setting [8]) was 100 nM; in the test on HCT-116 [7], 8600 nM.
